Assays:
[1] = tested on: Jurkat cells; assay: Annexin-V/PI assay; assay type: cell-based, human; conditions: 72 h, positive controls Cis-Pt 50 μM, Etoposide 5 μM
Experimental: (§1) Surface exposure of PS on apoptotic cells was measured by flow cytometry with Cytomics FC500 (Beckman Coulter) by adding simultaneously annexin-V conjugated to fluorescein isothiocyanate (FITC) and PI to cells according to the manufacturer′s instructions (Annexin-V Fluos, Roche Diagnostic).

[2] = tested on: MCF-7 cells; assay: Annexin-V/PI assay; assay type: cell-based, human; conditions: MCF-7, 72 h; positive controls Cis-Pt 50 μM, Etoposide 5 μM
Experimental: as §1

[3] = tested on: MDA-MB-231 cells; assay: Annexin-V/PI assay; assay type: cell-based, human; conditions: MDA-MB-231, 72 h; positive controls Cis-Pt 50 μM, Etoposide 5 μM
Experimental: as §1

[4] = target: T1, human ChoKα1 (Homo sapiens, UniProt P35790); assay: Tryptophan fluorescence quenching; assay type: binding; conditions: mean ± S.D. of at least three independent experiments; 25 °C, enzyme 1 μM; read-out: HsChoKα1 Kd
T1 construct: made in house
Experimental: All compounds were prepared in 100% DMSO. Their Kds against human ChoKα1 were measured by monitoring the quenching of tryptophan fluorescence. All experiments were performed in a Cary Eclipse spectrofluorometer (Varian) at 25 °C with the enzymes at 1 μM, and concentrations of compounds varying from 0.1 to 5 μM for ChoKα1 in 25 mM Tris, 150 mM NaCl, pH 7.5. Fluorescence emission spectra were recorded in the 300–400 nm range with an excitation wavelength of 280 nm, with slit width of 5 nm. Controls were determined by incubating the enzymes with equivalent amounts of DMSO. As indicated previously, data analysis was performed in Prism (GraphPad software) considering a model with a single binding site (Eq. 1), where F0 is the intrinsic fluorescence of the enzyme in the absence of quencher (Q), F1 is the observed fluorescence at a given quencher concentration, fa is the fractional degree of fluorescence, and Kd is the dissociation constant.

[5] = target: purified human ChoKα1 (Homo sapiens, UniProt P35790); assay: Determination of human choline kinase α1 activity ([methyl-14C]choline incorporation into phosphocholine); assay type: biochemical; conditions: mean ± SEM, three independent experiments; read-out: IC50 ChoKα1 purified
Experimental: The effect of the different inhibitors on human choline kinase (ChoK) was assayed in ChoKα1 purified as previously described[32]. In each experiment DMSO-assays were always run in parallel as a control. DMSO in no case exceeded a concentration of 0.1% in order to avoid unspecific ChoK inhibition. ChoK activity was assayed by measuring the rate of incorporation of ^14C from [methyl-^14C]choline into phosphocholine both in the presence or absence of different inhibitor concentrations. Briefly, the final reaction mixture contained 100 mM Tris (pH 8.5), 10 mM MgCl2, and 10 mM ATP, and 20 ng of purified ChoKα1. […] The assay was stopped by immersing the reaction tubes in boiling water for 3 min. Aliquots of the reaction mixture were applied to the origin of Silica Gel plates in the presence of phosphocholine (0.1 mg) and choline (0.1 mg) as carriers. The chromatography was developed in methanol/0.6% NaCl/28% NH4OH in water (50:50:5, v/v/v) as solvent. Phosphocholine was visualized under exposure to iodine vapor and the corresponding spot was scraped and transferred to scintillation vials for measurement of radioactivity by a Beckman 6000-TA (Madrid, Spain) liquid-scintillation counter. At least three experiments were performed in all assays.

[6] = tested on: A549 cells; assay: Antiproliferative MTT assay; assay type: cell-based; conditions: Homo sapiens, 72 h, mean ± SEM
Experimental: (§2) Human T-cell leukemia (Jurkat), human B-cell leukemia (RS 4,11) and human promyelocytic leukemia (HL-60) cells were grown in RPMI-1640 medium (Gibco, Milan, Italy). Breast adenocarcinoma (MCF-7 and MDA-MB-231), human non-small cell lung carcinoma (A549), human cervix carcinoma (HeLa), human prostate adenocarcinoma (PC-3), and human colon adenocarcinoma (HT-29) cells were grown in DMEM medium (Gibco, Milan, Italy). Both media were supplemented with 115 units/mL of penicillin G (Gibco, Milan, Italy), 115 μg/mL of streptomycin (Invitrogen, Milan, Italy) and 10% fetal bovine serum (Invitrogen, Milan, Italy). Stock solutions (10 mM) of the different compounds were obtained by dissolving them in DMSO. Individual wells of 96-well tissue-culture microtiter plates were inoculated with 100 μL of complete medium containing 8 × 10^3 cells. The plates were incubated at 37 °C in a humidified 5% CO2 incubator for 18 h prior to the experiments. After medium removal, 100 μL of fresh medium containing the test compound at different concentrations was added to each well and incubated at 37 °C for 72 h. The percentage of DMSO in the medium in no case exceeded 0.25%.

[7] = tested on: HL-60 cells; assay: Antiproliferative MTT assay; assay type: cell-based; conditions: Homo sapiens, 72 h, mean ± SEM
Experimental: as §2

[8] = tested on: HT-29 cells; assay: Antiproliferative MTT assay; assay type: cell-based; conditions: Homo sapiens, 72 h, mean ± SEM
Experimental: as §2

[9] = tested on: HeLa cells; assay: Antiproliferative MTT assay; assay type: cell-based; conditions: Homo sapiens, 72 h, mean ± SEM
Experimental: as §2

[10] = tested on: Jurkat cells; assay: Antiproliferative MTT assay; assay type: cell-based; conditions: Homo sapiens, 72 h, mean ± SEM
Experimental: as §2

[11] = tested on: MCF-7 cells; assay: Antiproliferative MTT assay; assay type: cell-based; conditions: Homo sapiens, MCF7, 72 h, mean ± SEM
Experimental: as §2

[12] = tested on: MDA-MB-231 cells; assay: Antiproliferative MTT assay; assay type: cell-based; conditions: Homo sapiens, 72 h, mean ± SEM
Experimental: as §2

[13] = tested on: PC-3 cells; assay: Antiproliferative MTT assay; assay type: cell-based; conditions: Homo sapiens, 72 h, mean ± SEM
Experimental: as §2

[14] = tested on: RS4,11 cells; assay: Antiproliferative MTT assay; assay type: cell-based; conditions: Homo sapiens, 72 h, mean ± SEM
Experimental: as §2

[15] = tested on: PBL (+Pha); assay: Antiproliferative assay in non-tumoral cells (MTT); assay type: cell-based; conditions: Homo sapiens, non-tumoral cells stimulated with phytohematoagglutinin, 72 h, mean ± SEM
Experimental: (§3) Peripheral mononuclear cells (PBMC) from healthy donors were obtained by separation on Lymphoprep (Fresenius KABI Norge AS) gradient. After extensive washing, cells were resuspended (1 × 10^6 cells/mL) in RPMI-1640 with 10% fetal bovine serum and incubated overnight. For cytotoxicity evaluations in proliferating PBL cultures, non-adherent cells were resuspended at 5 × 10^5 cells/mL in growth medium, containing 2.5 μg/mL PHA (Irvine Scientific). Different concentrations of the test compounds were added, and viability was determined 72 h later by the MTT test. For cytotoxicity evaluations in resting PBL cultures, non-adherent cells were resuspended (5 × 10^5 cells/mL) and treated for 72 h with the test compounds, as described above.

[16] = tested on: PBL (resting); assay: Antiproliferative assay in non-tumoral cells (MTT); assay type: cell-based; conditions: Homo sapiens, 72 h, mean ± SEM
Experimental: as §3

[17] = tested on: Human fibroblasts; assay: Antiproliferative assay in non-tumoral cells; assay type: cell-based; conditions: Fibroblast, mean ± SEM
From the text: Human fibroblasts from foreskin were isolated as previously described[58] and maintained in DMEM medium with 10% fetal bovine serum added.

[18] = tested on: HUVEC; assay: Antiproliferative assay in non-tumoral cells; assay type: cell-based; conditions: Homo sapiens, mean ± SEM
Experimental: Human Umbilical Vein Endothelial cells (HUVEC), were prepared from human umbilical-cord veins, as previously described. The adherent cells were maintained in M200 medium added by LSGS (low serum growth supplement), containing FBS, hydrocortisone, hEGF, bFGF, heparin, gentamycin/amphotericin (Life Technologies, Monza, Italy). Once confluent, the cells were detached by trypsin–EDTA solution and used in experiments from the first to sixth passages.

[19] = Solubility in crystallization mother liquor (crystal soaking); assay type: physicochemical; conditions: 20% PEG 3350, 0.25 M potassium isothiocyanate, 10% DMSO, compound 50 mM
Experimental: ChoKα1 at 20 mg/ml in buffer 25 mM Tris/HCl, 150 mM NaCl pH 7.5 was used as the protein solution. The sitting-drop vapor-diffusion method was used to produce apo-crystals by mixing 0.5 μl of the protein solution and an equal volume of mother liquor (crystals appeared in 20% polyethylene glycol [PEG] 3350 and 0.25 M potassium isothiocyanate). Tetragonal crystals (space group P43212) grew within in 3–4 days and were soaked in 2 μL of the mother liquor with 0.2 μL of a dilution 500 mM of compounds 10a, 10g, 10h, 10k, and 10l in DMSO (DMSO was at 10% final concentration in the mix whereas compounds were at 50 mM) for two days. Only crystals soaked with compound 10a contained the compound. The crystals used in this study were cryoprotected in mother-liquor solutions containing 20% ethylenglycol and frozen in a nitrogen gas stream cooled to 100 K.

[20] = tested on: MDA-MB-231 cells; assay: Cell-cycle distribution analysis (PI, flow cytometry); assay type: cell-based, human; conditions: MDA-MB-231
Experimental: [The source words this procedure for another cell line and reports this cell line under the same test.] For flow-cytometric analysis of the DNA content, 5 × 10^5 HeLa or Jurkat cells in exponential growth were treated with different concentrations of the test compounds for 24 and 48 h. After the incubation period, the cells were collected, centrifuged, and fixed with ice-cold ethanol (70%). The cells were then treated with lysis buffer containing RNAse A and 0.1% Triton X-100, and then stained with propidium iodide (PI). Samples were analyzed in a Cytomics FC500 flow cytometer (Beckman Coulter). DNA histograms were analyzed using MultiCycle for Windows (Phoenix Flow Systems).

[21] = tested on: breast- and colon-cancer cells; set-up: method as in earlier work; conditions: 15 μM; ref 15 (Sanchez-Lopez et al.); cited from earlier work
[22] = tested on: mice; conditions: mouse, in vivo; cited from earlier work

Sequence of purified human ChoKα1 (P35790 whole entry): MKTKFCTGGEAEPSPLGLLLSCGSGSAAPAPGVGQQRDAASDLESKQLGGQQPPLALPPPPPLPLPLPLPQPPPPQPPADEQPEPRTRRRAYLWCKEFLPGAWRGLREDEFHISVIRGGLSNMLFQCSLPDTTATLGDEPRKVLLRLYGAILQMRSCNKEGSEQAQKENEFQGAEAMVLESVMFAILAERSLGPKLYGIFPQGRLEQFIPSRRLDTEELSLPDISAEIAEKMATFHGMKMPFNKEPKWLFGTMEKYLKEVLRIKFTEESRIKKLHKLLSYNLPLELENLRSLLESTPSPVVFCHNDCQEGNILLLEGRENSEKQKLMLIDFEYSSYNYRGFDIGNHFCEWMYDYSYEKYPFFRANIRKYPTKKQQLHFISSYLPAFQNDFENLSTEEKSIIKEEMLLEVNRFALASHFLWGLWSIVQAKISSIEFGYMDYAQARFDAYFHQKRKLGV
T1 sequence (P35790 whole entry): as above

| Compound | Apoptotic cells (annexin-V/PI) [1] | Apoptotic cells (annexin-V/PI) [2] | Apoptotic cells (annexin-V/PI) [3] | Kd [4] | IC50 [5] | GI50 [6] | GI50 [7] | GI50 [8] | GI50 [9] | GI50 [10] | GI50 [11] | GI50 [12] | GI50 [13] | GI50 [14] | GI50 [15] | GI50 [16] | GI50 [17] | GI50 [18] | Cells with hypodiploid DNA content (apoptotic cells by cell-cycle analysis) [20] | Cell-cycle effect (G1 phase) [21] | other results |
| --- | --- | --- | --- | --- | --- | --- | --- | --- | --- | --- | --- | --- | --- | --- | --- | --- | --- | --- | --- | --- | --- |
| N.N.[Cl][Pt][Cl] [Cis-Pt] | induce significant apoptosis | induce significant apoptosis | induce significant apoptosis | – | – | – | – | – | – | – | – | – | – | – | – | – | – | – | – | – | – |
| CN(c1ccc(Cl)cc1)c1cc[n+](Cc2ccc(OCCOc3ccc(C[n+]4ccc(N(C)c5ccc(Cl)cc5)c5ccccc54)cc3)cc2)c2ccccc12.[Br-].[Br-] [Compound 10g, 1,1′-(((ethane-1,2-diylbis(oxy))bis(4,1-phenylene))bis(methylene))bis(4-((4-chlorophenyl)(methyl)amino)quinolinium) bromide] | – | – | – | 517 ± 99 nM | 3270 ± 660 nM | 110 ± 18 nM | 710 ± 240 nM | 750 ± 120 nM | 250 ± 60 nM | 98 ± 31 nM | 460 ± 63 nM | 190 ± 9 nM | 260 ± 10 nM | 150 ± 40 nM | 550 ± 110 nM | 980 ± 250 nM | 7400 ± 2400 nM | 10400 ± 3500 nM | – | – | melting point: 178 to 180 °C |
| Clc1ccc2c(N3CCCC3)cc[n+](Cc3ccc(OCCOc4ccc(C[n+]5ccc(N6CCCC6)c6ccc(Cl)cc65)cc4)cc3)c2c1.[Br-].[Br-] [Compound 10l, 1,1′-(((ethane-1,2-diylbis(oxy))bis(4,1-phenylene))bis(methylene))bis(7-chloro-4-(pyrrolidin-1-yl)quinolinium) bromide] | – | – | – | 357 ± 39 nM | 920 ± 10 nM | 140 ± 60 nM | 160 ± 70 nM | 560 ± 210 nM | 370 ± 180 nM | 7 ± 3 nM | 22 ± 7 nM | 50 ± 20 nM | 800 ± 200 nM | 420 ± 140 nM | 490 ± 150 nM | 3800 ± 550 nM | 9600 ± 1300 nM | 11400 ± 5900 nM | – | – | Solubility in the mother liquor [19]: insoluble in the mother liquor |
| COc1cc([C@@H]2c3cc4c(cc3[C@@H](O[C@@H]3O[C@@H]5CO[C@@H](C)O[C@H]5[C@H](O)[C@H]3O)[C@H]3COC(=O)[C@H]23)OCO4)cc(OC)c1O [Etoposide] | induce significant apoptosis | induce significant apoptosis | induce significant apoptosis | – | – | – | – | – | – | – | – | – | – | – | – | – | – | – | – | – | – |
| CN(C)c1cc[n+](Cc2ccc(CCCCc3ccc(C[n+]4ccc(N(C)C)cc4)cc3)cc2)cc1 [MN58b, reference compound] | – | – | – | – | – | 540 ± 200 nM | 320 ± 30 nM | 1900 ± 400 nM | 1900 ± 100 nM | 350 ± 100 nM | 1800 ± 60 nM | 310 ± 120 nM | – | 1000 ± 300 nM | 150 ± 50 nM | 2000 ± 400 nM | – | 2100 ± 580 nM | negligible percentage of apoptotic cells | significant decrease of the G1 phase | – |
| CN(c1ccc(Cl)cc1)c1cc[n+](Cc2ccc(-c3ccc(C[n+]4ccc(N(C)c5ccc(Cl)cc5)c5ccccc54)cc3)cc2)c2ccccc12 [RSM932A, reference compound] | – | – | – | – | – | 450 ± 90 nM | 930 ± 100 nM | 400 ± 200 nM | 830 ± 100 nM | 410 ± 100 nM | 180 ± 100 nM | 170 ± 50 nM | – | 170 ± 40 nM | 230 ± 50 nM | 1100 ± 90 nM | – | 460 ± 47 nM | negligible percentage of apoptotic cells | significant decrease of the G1 phase | Toxicity profile and tolerability [22]: low-toxicity profile with improved tolerability |
